# Reference: patent US20240158446A1, “CYCLIC COMPOUND HAVING SELECTIVE INHIBITORY ACTION ON KRAS OVER HRAS AND NRAS” (CHUGAI SEIYAKU KABUSHIKI KAISHA, priority 2021, published 2024)
# Where a SMILES comes first, the peptide text is derived from it. Bridges are numbered along the chain shown (N, C = ends). [ ]: non-standard residue; d: D form. The star is where a group is joined. hPhe(3-Cl-4-CF3) = N[C@@H](CCc1ccc(C(F)(F)F)c(Cl)c1)C(=O)O; NEtPhe(4-Me) = CCN[C@@H](Cc1ccc(C)cc1)C(=O)O; NMeGly(cPent) = CN[C@H](C(=O)O)C1CCCC1; Hyp = O=C(O)[C@@H]1C[C@@H](O)CN1; NMeD = CN[C@@H](CC(=O)O)C(=O)O; NMeL = CN[C@@H](CC(C)C)C(=O)O; Morpholide = C1CN(*)CCO1; NMeA = CN[C@@H](C)C(=O)O; Ac5c = NC1(C(=O)O)CCCC1; Aze = O=C(O)[C@@H]1CCN1; X51 = C1CCC(*)OC1; Sar = CNCC(=O)O
# Tests used:
# [1] = target: GDP-bound HRAS wild-type protein (Homo sapiens, UniProt P01112); assay: Binding to HRAS by surface plasmon resonance (SPR), Single Cycle Kinetics; conditions: for HRAS/KRAS (ratio of KD value with respect to GDP-bound HRAS wild-type protein to KD value with respect to KRAS): SPR KD ratio HRAS/KRAS, class symbols
# [2] = target: GDP-bound NRAS wild-type protein (Homo sapiens, UniProt P01111); assay: Binding to NRAS by surface plasmon resonance (SPR), Single Cycle Kinetics; conditions: for NRAS/KRAS (ratio of KD value with respect to GDP-bound NRAS wild-type protein to KD value with respect to KRAS): SPR KD ratio NRAS/KRAS, class symbols
# [3] = SPR, GDP-bound HRAS wild-type protein vs GDP-bound KRAS wild-type protein, KD ratio class
# [4] = SPR, GDP-bound NRAS wild-type protein vs GDP-bound KRAS wild-type protein, KD ratio class
# [5] = SPR, GDP-bound HRAS wild-type protein vs GDP-bound KRAS wild-type protein
# [6] = SPR, GDP-bound NRAS wild-type protein vs GDP-bound KRAS wild-type protein
# GDP-bound HRAS wild-type protein, sequence (P01112 whole entry): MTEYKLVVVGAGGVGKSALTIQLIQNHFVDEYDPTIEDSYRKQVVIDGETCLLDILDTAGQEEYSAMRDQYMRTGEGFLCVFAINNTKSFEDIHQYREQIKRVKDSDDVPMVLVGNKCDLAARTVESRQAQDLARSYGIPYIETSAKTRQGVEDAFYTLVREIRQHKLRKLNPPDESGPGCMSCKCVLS
# GDP-bound NRAS wild-type protein, sequence (P01111 whole entry): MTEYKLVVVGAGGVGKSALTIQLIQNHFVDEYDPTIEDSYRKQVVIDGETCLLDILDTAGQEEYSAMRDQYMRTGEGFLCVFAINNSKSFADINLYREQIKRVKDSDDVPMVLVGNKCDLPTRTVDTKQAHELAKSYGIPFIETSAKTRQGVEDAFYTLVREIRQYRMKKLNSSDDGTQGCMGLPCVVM
SMILES,HRAS/KRAS (ratio of KD value with respect to GDP-bound HRAS wild-type protein to KD value with respect to KRAS) [1],NRAS/KRAS (ratio of KD value with respect to GDP-bound NRAS wild-type protein to KD value with respect to KRAS) [2],other results
CCO[C@@H]1C[C@H]2C(=O)NC3(CC(C)(C)C3)C(=O)N(C)[C@@H](C3CCCC3)C(=O)N(C)[C@@H](C(C)C)CC(=O)N(C)[C@@H](CC3CC3)C(=O)N[C@@H]([C@@H](C)CC)C(=O)N(C)CC(=O)N(C)[C@H]3C/C=C\CCN(C3=O)[C@@H](Cc3ccc(C(F)(F)F)cc3)C(=O)N(C)CC(=O)N[C@@H](CCc3cc(F)c(C(F)(F)F)c(F)c3)C(=O)N2C1 [PP1594],–,–,"HRAS/KRAS (ratio of KD value for HRAS to KD value for KRAS) [1, 3]: A (a compound having 10 or more and less than 20 is denoted as A); NRAS/KRAS (ratio of KD value for NRAS to KD value for KRAS) [2, 4]: A (a compound having 10 or more and less than 20 is denoted as A)"
CC[C@@H]1C[C@H]2C(=O)NC3(CCC3)C(=O)N(C)[C@@H](C3CCCC3)C(=O)N(C)[C@H](C(=O)N(C)C)CC(=O)N(C)[C@@H](CC(C)C)C(=O)N[C@@H]([C@@H](C)CC)C(=O)N(C)CC(=O)N(C)[C@H]3C/C=C\CCN(C3=O)[C@@H](Cc3ccc(C)cc3)C(=O)N(C)CC(=O)N[C@@H](CCc3cc(F)c(C(F)(F)F)c(F)c3)C(=O)N2C1 [PP2220],–,–,"HRAS/KRAS (ratio of KD value for HRAS to KD value for KRAS) [1, 5]: A (a compound having 10 or more and less than 20 is denoted as A); NRAS/KRAS (ratio of KD value for NRAS to KD value for KRAS) [2, 6]: A (a compound having 10 or more and less than 20 is denoted as A)"
CC[C@H](C)[C@@H]1NC(=O)[C@H](CC(C)C)N(C)C(=O)C[C@@H](C(=O)N2CCOCC2)N(C)C(=O)[C@H](C2CCCC2)N(C)C(=O)C2(CCCC2)NC(=O)[C@@H]2C[C@@H](OC3CCCCO3)CN2C(=O)[C@H](CCc2ccc(C(F)(F)F)c(Cl)c2)NC(=O)CN(C)C(=O)[C@H](Cc2ccc(C)cc2)N(CC)C(=O)[C@@H]2CCN2C(=O)[C@H](C)N(C)C1=O (stereo partly drawn) [PP0067] ([NMeL]I[NMeA][Aze][NEtPhe(4-Me)][Sar][hPhe(3-Cl-4-CF3)][Hyp](X51)[Ac5c][NMeGly(cPent)][NMeD]-Morpholide; lactam N-11),–,–,"HRAS/KRAS (ratio of KD value for HRAS to KD value for KRAS) [1, 5]: C (A compound having a KD ratio of 0.1 or more and less than 3 is denoted as C); NRAS/KRAS (ratio of KD value for NRAS to KD value for KRAS) [2, 6]: C (A compound having a KD ratio of 0.1 or more and less than 3 is denoted as C)"
CCO[C@@H]1C[C@H]2C(=O)NC3(CCC3)C(=O)N(C)[C@@H](C3CCCC3)C(=O)N(CC)[C@H](C(=O)N3CCOCC3)CC(=O)N(C)[C@@H](CCC(Cl)Cl)C(=O)N[C@@H]([C@@H](C)CC)C(=O)N(C)CC(=O)N(C)[C@H]3CCCCCN(C3=O)[C@@H](Cc3ccc(C(F)(F)F)cc3)C(=O)N(C)CC(=O)N[C@@H](CCc3cc(F)c(C(F)(F)F)c(F)c3)C(=O)N2C1 [PP0949],–,–,"HRAS/KRAS (ratio of KD value for HRAS to KD value for KRAS) [1, 5]: A (a compound having 10 or more and less than 20 is denoted as A); NRAS/KRAS (ratio of KD value for NRAS to KD value for KRAS) [2, 6]: A (a compound having 10 or more and less than 20 is denoted as A)"
CCO[C@@H]1C[C@H]2C(=O)NC3(CC(C)(C)C3)C(=O)N(C)[C@@H](C3CCCC3)C(=O)N(C)[C@H](C(=O)N(C)C)CC(=O)N(C)[C@@H](CC3CCCC3)C(=O)N[C@@H]([C@@H](C)CC)C(=O)N(C)CC(=O)N(C)[C@H]3C/C=C\CCN(C3=O)[C@@H](Cc3ccc(C(F)(F)F)cc3)C(=O)N(C)CC(=O)N[C@@H](CCc3ccc(C(F)(F)F)c(OC)c3)C(=O)N2C1 [PP1565],–,–,"HRAS/KRAS (ratio of KD value for HRAS to KD value for KRAS) [1, 3]: B (a compound having 3 or more and less than 10 is denoted as B); NRAS/KRAS (ratio of KD value for NRAS to KD value for KRAS) [2, 4]: A (a compound having 10 or more and less than 20 is denoted as A)"
CC[C@H](C)[C@@H]1NC(=O)[C@H](CC(C)C)N(C)C(=O)C[C@@H](C(=O)N2CCOCC2)N(C)C(=O)[C@H](C2CCCC2)N(C)C(=O)C2(COC2)NC(=O)[C@@H]2CCCN2C(=O)[C@H](CCc2cc(F)c(C(F)(F)F)c(F)c2)NC(=O)CN(C)C(=O)[C@H](Cc2ccc(C(F)(F)F)cc2)N2CCCCC[C@@H](C2=O)N(C)C(=O)CN(C)C1=O [PP0501],–,–,"HRAS/KRAS (ratio of KD value with respect to HRAS to KD value with respect to KRAS) [1, 5]: B (a compound having 3 or more and less than 10 is denoted as B); NRAS/KRAS (ratio of KD value with respect to NRAS to KD value with respect to KRAS) [2, 6]: B (a compound having 3 or more and less than 10 is denoted as B)"
CC[C@H](C)[C@@H]1NC(=O)[C@H](CC2CC2)N(C)C(=O)C[C@@H](C(=O)N(C)CC)N(C)C(=O)[C@H](C2CCCC2)N(C)C(=O)C2(CC(C)(C)C2)NC(=O)[C@@H]2C[C@@H](F)CN2C(=O)[C@H](CCc2cc(F)c(C(F)(F)F)c(F)c2)NC(=O)CN(C)C(=O)[C@H](Cc2ccc(C)cc2)N2CC/C=C\C[C@@H](C2=O)N(C)C(=O)CN(C)C1=O [PP2802],A (a compound having 10 or more and less than 20 is denoted as A),AA (a compound having 20 or more is denoted as AA),–
CCCCO[C@H]1CCN2C(=O)[C@H](CCc3cc(F)c(C(F)(F)F)c(F)c3)NC(=O)CN(C)C(=O)[C@H](Cc3ccc(C(F)(F)F)cc3)N3CCCCC[C@@H](C3=O)N(C)C(=O)CN(C)C(=O)[C@H]([C@@H](C)CC)NC(=O)[C@H](CC(C)C)N(C)C(=O)C[C@@H](C(=O)N3CCOCC3)N(C)C(=O)[C@H](C3CCCC3)N(C)C(=O)C3(CCC3)NC(=O)[C@H]12 [PP1009],–,–,"HRAS/KRAS (ratio of KD value for HRAS to KD value for KRAS) [1, 5]: B (a compound having 3 or more and less than 10 is denoted as B); NRAS/KRAS (ratio of KD value for NRAS to KD value for KRAS) [2, 6]: B (a compound having 3 or more and less than 10 is denoted as B)"
CCO[C@@H]1C[C@H]2C(=O)NC3(CC(C)(C)C3)C(=O)N(C)[C@@H](C3CCCC3)C(=O)N(C)[C@H](C(=O)N(C)CC)CC(=O)N(C)[C@H]3CC/C=C/c4ccc(cc4)C[C@@H](C(=O)N(C)CC(=O)N[C@@H](CCc4ccc(Cl)c(Cl)c4)C(=O)N2C1)N1CC/C=C\C[C@@H](C1=O)N(C)C(=O)CN(C1CC1)C(=O)[C@H]([C@@H](C)CC)NC3=O [PP2598],A (a compound having 10 or more and less than 20 is denoted as A),A (a compound having 10 or more and less than 20 is denoted as A),–
CCC[C@H]1C(=O)N[C@@H]([C@@H](C)CC)C(=O)N(C)CC(=O)N(C)[C@H]2C/C=C\CCN(C2=O)[C@@H](Cc2ccc(C)cc2)C(=O)N(C)CC(=O)N[C@@H](CCc2ccc(CC)c(Cl)c2)C(=O)N2C[C@H](OCC)C[C@H]2C(=O)NC2(CC(C)(C)C2)C(=O)N(C)[C@@H](C(CC)CC)C(=O)N(C)[C@H](C(=O)N(C)C)CC(=O)N1C [PP2779],A (a compound having 10 or more and less than 20 is denoted as A),A (a compound having 10 or more and less than 20 is denoted as A),–
CCC(CC)[C@H]1C(=O)N(C)[C@H](C(=O)N(C)C)CC(=O)N(C)[C@@H](COC)C(=O)N[C@@H]([C@@H](C)CC)C(=O)N(C)CC(=O)N(C)[C@H]2C/C=C\CCN(C2=O)[C@@H](Cc2ccc(C)cc2)C(=O)N(C)CC(=O)N[C@@H](CCc2ccc(C(F)(F)F)c(OC)c2)C(=O)N2CCCCC[C@H]2C(=O)NC2(CC(C)(C)C2)C(=O)N1C [PP2970],A (a compound having 10 or more and less than 20 is denoted as A),A (a compound having 10 or more and less than 20 is denoted as A),–
CCCOC[C@H]1C(=O)N[C@@H]([C@@H](C)CC)C(=O)N(C)CC(=O)N(C)[C@H]2C/C=C\CCN(C2=O)[C@@H](Cc2ccc(C(F)(F)F)cc2)C(=O)N(C)CC(=O)N[C@@H](CCc2ccc(Cl)c(Cl)c2)C(=O)N2C[C@H](OCC)C[C@H]2C(=O)NC2(CCC2)C(=O)N(C)[C@@H](C2CCCC2)C(=O)N(C)[C@H](C(=O)N(C)CCC)CC(=O)N1C [PP2830],A (a compound having 10 or more and less than 20 is denoted as A),A (a compound having 10 or more and less than 20 is denoted as A),–
CCCO[C@@H]1C[C@H]2C(=O)N(C)C3(CC(C)(C)C3)C(=O)N(C)[C@@H](C(CC)CC)C(=O)N(C)[C@H](C(=O)N(C)C)CC(=O)N(C)[C@@H](COC)C(=O)N[C@@H]([C@@H](C)CC)C(=O)N(C)CC(=O)N(C)[C@H]3C/C=C\CCN(C3=O)[C@@H](Cc3ccc(C)cc3)C(=O)N(C)CC(=O)N[C@@H](CCc3ccc(Cl)c(Cl)c3)C(=O)N2C1 [PP2812],A (a compound having 10 or more and less than 20 is denoted as A),AA (a compound having 20 or more is denoted as AA),–
CCC[C@H]1C(=O)N[C@@H]([C@@H](C)CC)C(=O)N(C)CC(=O)N(C)[C@H]2C/C=C\CCN(C2=O)[C@@H](Cc2ccc(C)cc2)C(=O)N(C)CC(=O)N[C@@H](CCc2ccc3sc(C)c(C)c3c2)C(=O)N2C[C@H](OCC)C[C@H]2C(=O)NC2(CC(C)(C)C2)C(=O)N(C)[C@@H](C2CCCC2)C(=O)N(C)[C@H](C(=O)N(C)C)CC(=O)N1C [PP2891],B (a compound having 3 or more and less than 10 is denoted as B),A (a compound having 10 or more and less than 20 is denoted as A),–
CCC[C@H]1C(=O)N[C@@H]([C@@H](C)CC)C(=O)N(C2CC2)CC(=O)N(C)[C@H]2C/C=C\CCN(C2=O)[C@@H](Cc2ccc(C)cc2)C(=O)N(C)CC(=O)N[C@@H](CCc2ccc(C3CC3)c(F)c2)C(=O)N2C[C@H](OCC)C[C@H]2C(=O)NC2(CC(C)(C)C2)C(=O)N(C)[C@@H](C2CCCC2)C(=O)N(C)[C@H](C(=O)N(C)C)CC(=O)N1C [PP2884],A (a compound having 10 or more and less than 20 is denoted as A),A (a compound having 10 or more and less than 20 is denoted as A),–
